According to US6489469B1, “Method for storing or transporting erythritol solution” (Nikken Chemicals Co., Ltd., priority 1999, dated 2002):

Legend:
[1] = system: Escherichia coli IFO 3972; assay: Viable Count of Escherichia coli IFO 3972 in Erythritol Solution; format: cell-based
Protocol: Erythritol solutions of respective concentrations in the range of from 30 to 60% were prepared. To these were inoculated Staphylococcus aureus IFO 13276, Bacillus subtilis IFO 3134, and Escherichia coli IFO 3972 as bacteria, Candida albicans IFO 1549 and Saccharomyces cerevisiae ATCC 9763 as yeasts, Aspergillus niger IFO 6342, Aspergillus flavus IFO 6343, and Penicillium funiculosum IFO 6345 as fungi, respectively, in a population (concentration) of 10,000 cells/mL or more. After the inoculation, the solutions were stored at 30, 37, 45, 50, or 60° C., respectively, for 56 days and the number of viable cell was determined daily. The determination of the number of viable cell was performed by a method of coating 0.1 mL of appropriately diluted sample cultivation on an agar plate and cultivating and counting the number of viable cell (the number of colony) that grew after the cultivation.

[2] = Long-term Stability of Erythritol Solution by High Temperature Storage; format: physicochemical; design: change in the degree of coloring / Degree of Coloring: scale not given here
Protocol: solutions having erythritol concentrations of 50%, 55%, 58% and 62%, respectively, were prepared and stored at 55° C., 60° C., 65° C. and 75° C. respectively, for 2 months and degree of coloring, pH, and purity were measured and the degree of deterioration was studied.

[3] = 75° C., short period of 10 days or less
[4] = Storage Temperature: 55° C., Erythritol Concentration: 50%, 0 days
[5] = Storage Temperature: 55° C., Erythritol Concentration: 50%, 10 days
[6] = Storage Temperature: 55° C., Erythritol Concentration: 50%, 30 days
[7] = Storage Temperature: 55° C., Erythritol Concentration: 50%, 60 days
[8] = Storage Temperature: 60° C., Erythritol Concentration: 55%, 0 days
[9] = Storage Temperature: 60° C., Erythritol Concentration: 55%, 10 days
[10] = Storage Temperature: 60° C., Erythritol Concentration: 55%, 30 days
[11] = Storage Temperature: 60° C., Erythritol Concentration: 55%, 60 days
[12] = Storage Temperature: 65° C., Erythritol Concentration: 58%, 0 days
[13] = Storage Temperature: 65° C., Erythritol Concentration: 58%, 10 days
[14] = Storage Temperature: 65° C., Erythritol Concentration: 58%, 30 days
[15] = Storage Temperature: 65° C., Erythritol Concentration: 58%, 60 days
[16] = Storage Temperature: 75° C., Erythritol Concentration: 62%, 0 days
[17] = Storage Temperature: 75° C., Erythritol Concentration: 62%, 10 days
[18] = Storage Temperature: 75° C., Erythritol Concentration: 62%, 30 days
[19] = Storage Temperature: 75° C., Erythritol Concentration: 62%, 60 days

- change in pH [2, 3]: ≤ 1
- change in purity [2, 3]: no change
- change in the degree of coloring [2, 3]: ≤ 0.01
- Degree of Coloring [2, 4]: 0.028
- Purity (%) [2, 4]: 99.9%
- pH [2, 4]: 5.7
- Degree of Coloring [2, 5]: 0.028
- Purity (%) [2, 5]: 99.9%
- pH [2, 5]: 5.6
- Degree of Coloring [2, 6]: 0.026
- Purity (%) [2, 6]: 100.0%
- pH [2, 6]: 5.4
- Degree of Coloring [2, 7]: 0.027
- Purity (%) [2, 7]: 100.0%
- pH [2, 7]: 5.1
- Degree of Coloring [2, 8]: 0.021
- Purity (%) [2, 8]: 99.9%
- pH [2, 8]: 5.7
- Degree of Coloring [2, 9]: 0.021
- Purity (%) [2, 9]: 99.9%
- pH [2, 9]: 5.4
- Degree of Coloring [2, 10]: 0.023
- Purity (%) [2, 10]: 99.9%
- pH [2, 10]: 5.5
- Degree of Coloring [2, 11]: 0.028
- Purity (%) [2, 11]: 99.9%
- pH [2, 11]: 5.0
- Degree of Coloring [2, 12]: 0.029
- Purity (%) [2, 12]: 100.0%
- pH [2, 12]: 5.7
- Degree of Coloring [2, 13]: 0.030
- Purity (%) [2, 13]: 99.9%
- pH [2, 13]: 5.5
- Degree of Coloring [2, 14]: 0.029
- Purity (%) [2, 14]: 100.0%
- pH [2, 14]: 5.2
- Degree of Coloring [2, 15]: 0.036
- Purity (%) [2, 15]: 99.9%
- pH [2, 15]: 4.7
- Degree of Coloring [2, 16]: 0.025
- Purity (%) [2, 16]: 99.9%
- pH [2, 16]: 5.7
- Degree of Coloring [2, 17]: 0.027
- Purity (%) [2, 17]: 99.9%
- pH [2, 17]: 5.2
- Degree of Coloring [2, 18]: 0.033
- Purity (%) [2, 18]: 99.9%
- pH [2, 18]: 4.8
- Degree of Coloring [2, 19]: 0.065
- Purity (%) [2, 19]: 99.9%
- pH [2, 19]: 3.9
SMILES: OC[C@@H](O)[C@@H](O)CO [Erythritol Solution, erythritol]
- The Number of Viable Cell ([1]; 30° C., 30% w/w, Day 0): 10000 or more cells/mL
- The Number of Viable Cell ([1]; 30° C., 30% w/w, Day 3): 10000 or more cells/mL
- The Number of Viable Cell ([1]; 30° C., 30% w/w, Day 7): 10000 or more cells/mL
- The Number of Viable Cell ([1]; 30° C., 30% w/w, Day 14): 7780 cells/mL
- The Number of Viable Cell ([1]; 30° C., 30% w/w, Day 28): 110 cells/mL
- The Number of Viable Cell ([1]; 30° C., 30% w/w, Day 56): 0 cells/mL
- The Number of Viable Cell ([1]; 30° C., 40% w/w, Day 0): 10000 or more cells/mL
- The Number of Viable Cell ([1]; 30° C., 40% w/w, Day 3): 10400 cells/mL
- The Number of Viable Cell ([1]; 30° C., 40% w/w, Day 7): 2820 cells/mL
- The Number of Viable Cell ([1]; 30° C., 40% w/w, Day 14): 420 cells/mL
- The Number of Viable Cell ([1]; 30° C., 40% w/w, Day 28): 0 cells/mL
- The Number of Viable Cell ([1]; 30° C., 40% w/w, Day 56): 0 cells/mL
- The Number of Viable Cell ([1]; 37° C., 30% w/w, Day 0): 10000 or more cells/mL
- The Number of Viable Cell ([1]; 37° C., 30% w/w, Day 3): 10000 or more cells/mL
- The Number of Viable Cell ([1]; 37° C., 30% w/w, Day 7): 8270 cells/mL
- The Number of Viable Cell ([1]; 37° C., 30% w/w, Day 14): 0 cells/mL
- The Number of Viable Cell ([1]; 37° C., 30% w/w, Day 28): 0 cells/mL
- The Number of Viable Cell ([1]; 37° C., 30% w/w, Day 56): 0 cells/mL
- The Number of Viable Cell ([1]; 37° C., 40% w/w, Day 0): 10000 or more cells/mL
- The Number of Viable Cell ([1]; 37° C., 40% w/w, Day 3): 11100 cells/mL
- The Number of Viable Cell ([1]; 37° C., 40% w/w, Day 7): 140 cells/mL
- The Number of Viable Cell ([1]; 37° C., 40% w/w, Day 14): 0 cells/mL
- The Number of Viable Cell ([1]; 37° C., 40% w/w, Day 28): 0 cells/mL
- The Number of Viable Cell ([1]; 37° C., 40% w/w, Day 56): 0 cells/mL
- The Number of Viable Cell ([1]; 45° C., 30% w/w, Day 0): 10000 or more cells/mL
- The Number of Viable Cell ([1]; 45° C., 30% w/w, Day 3): 450 cells/mL
- The Number of Viable Cell ([1]; 45° C., 30% w/w, Day 7): 0 cells/mL
- The Number of Viable Cell ([1]; 45° C., 30% w/w, Day 14): 0 cells/mL
- The Number of Viable Cell ([1]; 45° C., 30% w/w, Day 28): 0 cells/mL
- The Number of Viable Cell ([1]; 45° C., 30% w/w, Day 56): 0 cells/mL
- The Number of Viable Cell ([1]; 45° C., 40% w/w, Day 0): 10000 or more cells/mL
- The Number of Viable Cell ([1]; 45° C., 40% w/w, Day 3): 0 cells/mL
- The Number of Viable Cell ([1]; 45° C., 40% w/w, Day 7): 0 cells/mL
- The Number of Viable Cell ([1]; 45° C., 40% w/w, Day 14): 0 cells/mL
- The Number of Viable Cell ([1]; 45° C., 40% w/w, Day 28): 0 cells/mL
- The Number of Viable Cell ([1]; 45° C., 40% w/w, Day 56): 0 cells/mL
- The Number of Viable Cell ([1]; 45° C., 50% w/w, Day 0): 10000 or more cells/mL
- The Number of Viable Cell ([1]; 45° C., 50% w/w, Day 3): 0 cells/mL
- The Number of Viable Cell ([1]; 45° C., 50% w/w, Day 7): 0 cells/mL
- The Number of Viable Cell ([1]; 45° C., 50% w/w, Day 14): 0 cells/mL
- The Number of Viable Cell ([1]; 45° C., 50% w/w, Day 28): 0 cells/mL
- The Number of Viable Cell ([1]; 45° C., 50% w/w, Day 56): 0 cells/mL
- The Number of Viable Cell ([1]; 50° C., 30% w/w, Day 0): 10000 or more cells/mL
- The Number of Viable Cell ([1]; 50° C., 30% w/w, Day 3): 0 cells/mL
- The Number of Viable Cell ([1]; 50° C., 30% w/w, Day 7): 0 cells/mL
- The Number of Viable Cell ([1]; 50° C., 30% w/w, Day 14): 0 cells/mL
- The Number of Viable Cell ([1]; 50° C., 30% w/w, Day 28): 0 cells/mL
- The Number of Viable Cell ([1]; 50° C., 30% w/w, Day 56): 0 cells/mL
- The Number of Viable Cell ([1]; 50° C., 40% w/w, Day 0): 10000 or more cells/mL
- The Number of Viable Cell ([1]; 50° C., 40% w/w, Day 3): 0 cells/mL
- The Number of Viable Cell ([1]; 50° C., 40% w/w, Day 7): 0 cells/mL
- The Number of Viable Cell ([1]; 50° C., 40% w/w, Day 14): 0 cells/mL
- The Number of Viable Cell ([1]; 50° C., 40% w/w, Day 28): 0 cells/mL
- The Number of Viable Cell ([1]; 50° C., 40% w/w, Day 56): 0 cells/mL
- The Number of Viable Cell ([1]; 50° C., 50% w/w, Day 0): 10000 or more cells/mL
- The Number of Viable Cell ([1]; 50° C., 50% w/w, Day 3): 0 cells/mL
- The Number of Viable Cell ([1]; 50° C., 50% w/w, Day 7): 0 cells/mL
- The Number of Viable Cell ([1]; 50° C., 50% w/w, Day 14): 0 cells/mL
- The Number of Viable Cell ([1]; 50° C., 50% w/w, Day 28): 0 cells/mL
- The Number of Viable Cell ([1]; 50° C., 50% w/w, Day 56): 0 cells/mL
- growth of the microbes ([1]; temperature of 50° C. or more): prevented from growing
- time after which microbes died ([1]; temperature of 50° C. or more): 3 days
- storage stability (purity, coloring) ([2]; storage at a temperature of 55 to 65° C.): without causing a decrease in purity or causing coloring
